Measured values published in ChEMBL document CHEMBL3045426, “Synthesis, Antiviral and Antibacterial Activities of Isatin Mannich Bases” (Med Chem Res, 2005).
Values after ≈ are worked out from the molar mass of the structure shown.

Tested on: Vibrio cholerae
Assay: Antimicrobial activity against Vibrio cholerae 01 after 18 to 20 hr by agar dilution method
Assay type: functional
Details: 1

Row | Structure (SMILES) | MIC [µg/mL]
1 | COc1cc(Cc2cnc(/N=C3\C(=O)N(CN4CCN(c5cccc(Cl)c5)CC4)c4ccc(Cl)cc43)nc2N)cc(OC)c1OC | 0.61 (≈ 0.921 µM)

Tested on: Priestia megaterium
Assay: Antimicrobial activity against Bacillus megaterium after 18 to 20 hr by agar dilution method
Assay type: functional
Details: not given

Row | Structure (SMILES) | MIC [µg/mL]
2 | COc1cc(Cc2cnc(/N=C3\C(=O)N(CN4CCN(c5cccc(Cl)c5)CC4)c4ccc(Cl)cc43)nc2N)cc(OC)c1OC | 1250 (≈ 1890 µM)

Tested on: Enterobacter
Assay: Antimicrobial activity against Enterobacter after 18 to 20 hr by agar dilution method
Assay type: functional
Details: not given

Row | Structure (SMILES) | MIC [µg/mL]
3 | COc1cc(Cc2cnc(/N=C3\C(=O)N(CN4CCN(c5cccc(Cl)c5)CC4)c4ccc(Cl)cc43)nc2N)cc(OC)c1OC | 625 (≈ 943 µM)

Tested on: Citrobacter freundii
Assay: Antimicrobial activity against Citrobacter freundii after 18 to 20 hr by agar dilution method
Assay type: functional
Details: not given

Row | Structure (SMILES) | MIC [µg/mL]
4 | COc1cc(Cc2cnc(/N=C3\C(=O)N(CN4CCN(c5cccc(Cl)c5)CC4)c4ccc(Cl)cc43)nc2N)cc(OC)c1OC | 1250 (≈ 1890 µM)

Tested on: Salmonella enteritidis
Assay: Antimicrobial activity against Salmonella enterica subsp. enterica serovar Enteritidis after 18 to 20 hr by agar dilution method
Assay type: functional
Details: not given

Row | Structure (SMILES) | MIC [µg/mL]
5 | COc1cc(Cc2cnc(/N=C3\C(=O)N(CN4CCN(c5cccc(Cl)c5)CC4)c4ccc(Cl)cc43)nc2N)cc(OC)c1OC | 1250 (≈ 1890 µM)

Tested on: Salmonella typhimurium
Assay: Antimicrobial activity against Salmonella enterica subsp. enterica serovar Typhimurium after 18 to 20 hr by agar dilution method
Assay type: functional
Details: not given

Row | Structure (SMILES) | MIC [µg/mL]
6 | COc1cc(Cc2cnc(/N=C3\C(=O)N(CN4CCN(c5cccc(Cl)c5)CC4)c4ccc(Cl)cc43)nc2N)cc(OC)c1OC | 625 (≈ 943 µM)

Tested on: Proteus mirabilis
Assay: Antimicrobial activity against Proteus mirabilis after 18 to 20 hr by agar dilution method
Assay type: functional
Details: not given

Row | Structure (SMILES) | MIC [µg/mL]
7 | COc1cc(Cc2cnc(/N=C3\C(=O)N(CN4CCN(c5cccc(Cl)c5)CC4)c4ccc(Cl)cc43)nc2N)cc(OC)c1OC | 1250 (≈ 1890 µM)

Tested on: Proteus vulgaris
Assay: Antimicrobial activity against Proteus vulgaris after 18 to 20 hr by agar dilution method
Assay type: functional
Details: not given

Row | Structure (SMILES) | MIC [µg/mL]
8 | COc1cc(Cc2cnc(/N=C3\C(=O)N(CN4CCN(c5cccc(Cl)c5)CC4)c4ccc(Cl)cc43)nc2N)cc(OC)c1OC | 1250 (≈ 1890 µM)

Tested on: Edwardsiella tarda
Assay: Antimicrobial activity against Edwardsiella tarda after 18 to 20 hr by agar dilution method
Assay type: functional
Details: not given

Row | Structure (SMILES) | MIC [µg/mL]
9 | COc1cc(Cc2cnc(/N=C3\C(=O)N(CN4CCN(c5cccc(Cl)c5)CC4)c4ccc(Cl)cc43)nc2N)cc(OC)c1OC | 1250 (≈ 1890 µM)

Tested on: Escherichia coli
Assay: Antimicrobial activity against Escherichia coli NCTC 10418 after 18 to 20 hr by agar dilution method
Assay type: functional
Details: not given

Row | Structure (SMILES) | MIC [µg/mL]
10 | COc1cc(Cc2cnc(/N=C3\C(=O)N(CN4CCN(c5cccc(Cl)c5)CC4)c4ccc(Cl)cc43)nc2N)cc(OC)c1OC | 1250 (≈ 1890 µM)

Tested on: Salmonella typhi
Assay: Antimicrobial activity against Salmonella enterica subsp. enterica serovar Typhi after 18 to 20 hr by agar dilution method
Assay type: functional
Details: not given

Row | Structure (SMILES) | MIC [µg/mL]
11 | COc1cc(Cc2cnc(/N=C3\C(=O)N(CN4CCN(c5cccc(Cl)c5)CC4)c4ccc(Cl)cc43)nc2N)cc(OC)c1OC | 1250 (≈ 1890 µM)

Tested on: Salmonella paratyphi
Assay: Antimicrobial activity against Salmonella enterica subsp. enterica serovar Paratyphi A after 18 to 20 hr by agar dilution method
Assay type: functional
Details: not given

Row | Structure (SMILES) | MIC [µg/mL]
12 | COc1cc(Cc2cnc(/N=C3\C(=O)N(CN4CCN(c5cccc(Cl)c5)CC4)c4ccc(Cl)cc43)nc2N)cc(OC)c1OC | 1250 (≈ 1890 µM)

Tested on: Vibrio parahaemolyticus
Assay: Antimicrobial activity against Vibrio parahaemolyticus after 18 to 20 hr by agar dilution method
Assay type: functional
Details: not given

Row | Structure (SMILES) | MIC [µg/mL]
13 | COc1cc(Cc2cnc(/N=C3\C(=O)N(CN4CCN(c5cccc(Cl)c5)CC4)c4ccc(Cl)cc43)nc2N)cc(OC)c1OC | 1.22 (≈ 1.84 µM)

Tested on: Vibrio cholerae
Assay: Antimicrobial activity against Vibrio cholerae 0139 after 18 to 20 hr by agar dilution method
Assay type: functional
Details: 139

Row | Structure (SMILES) | MIC [µg/mL]
14 | COc1cc(Cc2cnc(/N=C3\C(=O)N(CN4CCN(c5cccc(Cl)c5)CC4)c4ccc(Cl)cc43)nc2N)cc(OC)c1OC | 625 (≈ 943 µM)

Tested on: Vibrio fluvialis
Assay: Antimicrobial activity against Vibrio fluvialis after 18 to 20 hr by agar dilution method
Assay type: functional
Details: not given

Row | Structure (SMILES) | MIC [µg/mL]
15 | COc1cc(Cc2cnc(/N=C3\C(=O)N(CN4CCN(c5cccc(Cl)c5)CC4)c4ccc(Cl)cc43)nc2N)cc(OC)c1OC | 625 (≈ 943 µM)

Tested on: Vibrio mimicus
Assay: Antimicrobial activity against Vibrio mimicus after 18 to 20 hr by agar dilution method
Assay type: functional
Details: not given

Row | Structure (SMILES) | MIC [µg/mL]
16 | COc1cc(Cc2cnc(/N=C3\C(=O)N(CN4CCN(c5cccc(Cl)c5)CC4)c4ccc(Cl)cc43)nc2N)cc(OC)c1OC | 9.76 (≈ 14.7 µM)

Tested on: Pseudomonas aeruginosa
Assay: Antimicrobial activity against Pseudomonas aeruginosa after 18 to 20 hr by agar dilution method
Assay type: functional
Details: not given

Row | Structure (SMILES) | MIC [µg/mL]
17 | COc1cc(Cc2cnc(/N=C3\C(=O)N(CN4CCN(c5cccc(Cl)c5)CC4)c4ccc(Cl)cc43)nc2N)cc(OC)c1OC | 156 (≈ 236 µM)

Tested on: Staphylococcus aureus
Assay: Antimicrobial activity against Staphylococcus aureus after 18 to 20 hr by agar dilution method
Assay type: functional
Details: not given

Row | Structure (SMILES) | MIC [µg/mL]
18 | COc1cc(Cc2cnc(/N=C3\C(=O)N(CN4CCN(c5cccc(Cl)c5)CC4)c4ccc(Cl)cc43)nc2N)cc(OC)c1OC | 1250 (≈ 1890 µM)

Tested on: Morganella morganii
Assay: Antimicrobial activity against Morganella morganii after 18 to 20 hr by agar dilution method
Assay type: functional
Details: not given

Row | Structure (SMILES) | MIC [µg/mL]
19 | COc1cc(Cc2cnc(/N=C3\C(=O)N(CN4CCN(c5cccc(Cl)c5)CC4)c4ccc(Cl)cc43)nc2N)cc(OC)c1OC | 1250 (≈ 1890 µM)

Tested on: Shigella boydii
Assay: Antimicrobial activity against Shigella boydii after 18 to 20 hr by agar dilution method
Assay type: functional
Details: not given

Row | Structure (SMILES) | MIC [µg/mL]
20 | COc1cc(Cc2cnc(/N=C3\C(=O)N(CN4CCN(c5cccc(Cl)c5)CC4)c4ccc(Cl)cc43)nc2N)cc(OC)c1OC | 19.5 (≈ 29.5 µM)

Tested on: Plesiomonas
Assay: Antimicrobial activity against Plesiomonas after 18 to 20 hr by agar dilution method
Assay type: functional
Details: not given

Row | Structure (SMILES) | MIC [µg/mL]
21 | COc1cc(Cc2cnc(/N=C3\C(=O)N(CN4CCN(c5cccc(Cl)c5)CC4)c4ccc(Cl)cc43)nc2N)cc(OC)c1OC | 19.5 (≈ 29.5 µM)

Tested on: Shigella sonnei
Assay: Antimicrobial activity against Shigella sonnei after 18 to 20 hr by agar dilution method
Assay type: functional
Details: not given

Row | Structure (SMILES) | MIC [µg/mL]
22 | COc1cc(Cc2cnc(/N=C3\C(=O)N(CN4CCN(c5cccc(Cl)c5)CC4)c4ccc(Cl)cc43)nc2N)cc(OC)c1OC | 1250 (≈ 1890 µM)

Tested on: Klebsiella pneumoniae
Assay: Antimicrobial activity against Klebsiella pneumoniae after 18 to 20 hr by agar dilution method
Assay type: functional
Details: not given

Row | Structure (SMILES) | MIC [µg/mL]
23 | COc1cc(Cc2cnc(/N=C3\C(=O)N(CN4CCN(c5cccc(Cl)c5)CC4)c4ccc(Cl)cc43)nc2N)cc(OC)c1OC | 1250 (≈ 1890 µM)

Tested on: Klebsiella pneumoniae
Assay: Antimicrobial activity against Klebsiella pneumoniae subsp. ozaenae after 18 to 20 hr by agar dilution method
Assay type: functional
Details: not given

Row | Structure (SMILES) | MIC [µg/mL]
24 | COc1cc(Cc2cnc(/N=C3\C(=O)N(CN4CCN(c5cccc(Cl)c5)CC4)c4ccc(Cl)cc43)nc2N)cc(OC)c1OC | 1250 (≈ 1890 µM)

Tested on: Mycobacterium tuberculosis
Assay: Antimycobacterial activity against Mycobacterium tuberculosis H37Rv ATCC 27294 at 6.25 ug/ml by MABA
Assay type: functional
Details: not given

Row | Structure (SMILES) | inhibition at 6.25 µg/mL [%]
25 | COc1cc(Cc2cnc(/N=C3\C(=O)N(CN4CCN(c5cccc(Cl)c5)CC4)c4ccc(Cl)cc43)nc2N)cc(OC)c1OC | 44

Tested on: not listed separately
Assay: Cytotoxicity against Homo sapiens (human) HuH7 cells assessed as cell growth at 50 ug/ml after 3 days by Neutral red assay
Assay type: cell-based, Huh-7
Details: read-out: Activity

Row | Structure (SMILES) | viability at 72 h, 50 ug/ml [%]
26 | COc1cc(Cc2cnc(/N=C3\C(=O)N(CN4CCN(c5cccc(Cl)c5)CC4)c4ccc(Cl)cc43)nc2N)cc(OC)c1OC | 67

Tested on: not listed separately
Assay: Cytotoxicity against Homo sapiens (human) CEM cells after 5 days by MTT assay
Assay type: cell-based
Details: CEM cells (CCRF-CEM)

Row | Structure (SMILES) | CC50 at 120 h [µg/mL]
27 | COc1cc(Cc2cnc(/N=C3\C(=O)N(CN4CCN(c5cccc(Cl)c5)CC4)c4ccc(Cl)cc43)nc2N)cc(OC)c1OC | 34.4 (≈ 51.9 µM)

Tested on: Human immunodeficiency virus 1
Assay: Antiviral activity against Human immunodeficiency virus 1 IIIB infected CEM cells assessed as protection against viral infection after 6 days by XTT assay
Assay type: functional, CCRF-CEM
Design: concentration or dose not given beside the values
Details: not given

Row | Structure (SMILES) | Activity [%]
28 | COc1cc(Cc2cnc(/N=C3\C(=O)N(CN4CCN(c5cccc(Cl)c5)CC4)c4ccc(Cl)cc43)nc2N)cc(OC)c1OC | 23

Tested on: Human immunodeficiency virus 1
Assay: Antiviral activity against Human immunodeficiency virus 1 IIIB infected CEM cells assessed as inhibition of virus-induced cytopathicity after 6 days by XTT assay
Assay type: functional, organism-based
Details: CCRF-CEM, 144 h

Row | Structure (SMILES) | EC50 [µg/mL]
29 | COc1cc(Cc2cnc(/N=C3\C(=O)N(CN4CCN(c5cccc(Cl)c5)CC4)c4ccc(Cl)cc43)nc2N)cc(OC)c1OC | > 34.4

Tested on: not listed separately
Assay: Cytotoxicity against Homo sapiens (human) MT4 cells after 5 days by MTT assay
Assay type: cell-based
Details: not given

Row | Structure (SMILES) | CC50 at 120 h [µg/mL]
30 | COc1cc(Cc2cnc(/N=C3\C(=O)N(CN4CCN(c5cccc(Cl)c5)CC4)c4ccc(Cl)cc43)nc2N)cc(OC)c1OC | 39.2 (≈ 59.2 µM)

Tested on: Human immunodeficiency virus 1
Assay: Antiviral activity against Human immunodeficiency virus 1 IIIB infected MT4 cells assessed as inhibition of virus-induced cytopathicity after 5 days by MTT assay
Assay type: functional, organism-based
Details: MT4, 120 h

Row | Structure (SMILES) | EC50 [µg/mL]
31 | COc1cc(Cc2cnc(/N=C3\C(=O)N(CN4CCN(c5cccc(Cl)c5)CC4)c4ccc(Cl)cc43)nc2N)cc(OC)c1OC | > 39.2

Tested on: Hepatitis C virus
Assay: Antiviral activity against Hepatitis C virus BM4-5 infected in Huh7 cells assessed as inhibition of viral RNA replication by phosphor screening method
Assay type: functional, Hepacivirus hominis, Huh-7
Details: not given

Row | Structure (SMILES) | inhibition (INH) [%]
32 | COc1cc(Cc2cnc(/N=C3\C(=O)N(CN4CCN(c5cccc(Cl)c5)CC4)c4ccc(Cl)cc43)nc2N)cc(OC)c1OC | 96

Tested on: Human immunodeficiency virus 1
Assay: Antiviral activity against Human immunodeficiency virus 1 IIIB infected MT4 cells assessed as protection against viral infection after 5 days by MTT assay
Assay type: functional
Design: concentration or dose not given beside the values
Details: not given

Row | Structure (SMILES) | Activity [%]
33 | COc1cc(Cc2cnc(/N=C3\C(=O)N(CN4CCN(c5cccc(Cl)c5)CC4)c4ccc(Cl)cc43)nc2N)cc(OC)c1OC | 20.9
